From BindingDB's records for doi:10.1021/jm800930w (Kyoto University, 2008)

Biological target: KiSS-1 receptor (Homo sapiens, UniProt Q969F8)
Test: Receptor Binding Assay
Settings: pH 7.3; 25 °C

Chain of KiSS-1 receptor (Q969F8 whole entry): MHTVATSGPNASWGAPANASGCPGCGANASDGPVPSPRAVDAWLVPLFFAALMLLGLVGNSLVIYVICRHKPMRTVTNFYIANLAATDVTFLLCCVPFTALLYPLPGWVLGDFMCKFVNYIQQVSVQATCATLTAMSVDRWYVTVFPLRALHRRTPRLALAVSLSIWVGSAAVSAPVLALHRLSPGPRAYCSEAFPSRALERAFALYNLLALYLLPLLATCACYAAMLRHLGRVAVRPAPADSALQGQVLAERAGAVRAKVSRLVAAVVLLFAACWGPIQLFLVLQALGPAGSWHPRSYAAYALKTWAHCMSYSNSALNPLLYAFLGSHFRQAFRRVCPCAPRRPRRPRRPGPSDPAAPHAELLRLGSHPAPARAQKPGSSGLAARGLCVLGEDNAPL

Compound `CC(C)C[C@H](NC(=O)CNC(=O)[C@H](Cc1ccccc1)NC(=O)[C@H](CO)NC(=O)[C@H](CC(N)=O)NC(=O)[C@H](Cc1c[nH]c2ccccc12)NC(=O)[C@H](CC(N)=O)NC(=O)[C@@H](N)Cc1ccc(O)cc1)C(=O)N[C@@H](CCCNC(=N)N)C(=O)N[C@@H](Cc1ccccc1)C(N)=O` [(2S)-2-[(2S)-2-[(2S)-2-[(2S)-2-amino-3-(4-hydroxyphenyl)propanamido]butanediamido]-3-(1H-indol-3-yl)propanamido]-N-[(1S)-1-{[(1S)-1-[({[(1S)-1-{[(1S)-4-carbamimidamido-1-{[(1S)-1-carbamoyl-2-phenylethyl]carbamoyl}butyl]carbamoyl}-3-methylbutyl]carbamoyl}methyl)carbamoyl]-2-phenylethyl]carbamoyl}-2-hydroxyethyl]butanediamide] has an IC50 of 0.12 nM.
